Results published in US7625948B2, “Ester compound and medicinal use thereof” (Japan Tobacco Inc., priority 2002, dated 2009).
pIC50: −log10 of the molar value.

Test system: HepG2 cells
Test: Test Example 2: inhibition of apolipoprotein B secretion from HepG2 cells, ELISA (also used for metabolites in Test Example 8)
Format: cell-based
Conditions: Homo sapiens, 24 hours, apo B in supernatant by ELISA, read-out: Test Example 2 Inhibition of apo B secretion IC50
Method: Inhibition of Apolipoprotein B Secretion from HepG2 Cells
HepG2 cells were suspended in Dulbecco's Modified Eagle's Medium (DMEM) (containing 10% fetal bovine serum, 100 units/mL penicillin and 100 μg/mL streptomycin), and placed on a 96-well plate (4×10^4 cells/well), then incubated for 24 hours. After removal of the medium, DMEM was replaced by a medium containing a sample dissolved in DMSO or a medium containing DMSO (concentration of DMSO: 0.5%) and incubation was further performed for 24 hours, after which the supernatant was recovered, and concentration of apo B in the supernatant was assayed by Enzyme-Linked Immunosorbent Assay (ELISA)
ELISA was carried out as follows. Anti-human apo B monoclonal antibody (0.5 μg/well) diluted with a solution of sodium carbonate in sodium bicarbonate buffer (50 mL, pH 9.6) was placed in a 96-well plate for ELISA, and allowed to stand at room temperature for 15 hours. After washing the plate, a blocking solution (250 μL/well) was placed in the well, and allowed to stand at room temperature for 1.5 hours. After washing the plate, a standard and a sample (100 μL/well) were placed in the well and allowed to stand at room temperature for one hour. The standard was prepared by adjusting the concentration of the purified human apo B with the DMEM to 0 to 1000 ng/mL. After washing the plate, an anti-human apo B polyclonal antibody labeled with a horse radish peroxidase which was diluted in 1:1000 with DEME (100 μL/well), and allowed to stand at room temperature for one hour. After washing the plate, 2,2-azinobis(3-ethylbenzothiazoline-6-sulfonic acid) solution (100 μL/well) was placed in the well, and allowed to stand at room temperature for one hour. The reaction was stopped by addition of 2% oxalic acid (100 μL/well), and absorbency at 405 nm was measured. Concentration of apo B in the sample was calculated on the basis of a standard curve of the standard. Inhibition rate (%) was calculated from the assayed values in accordance with the following equation.
Inhibition rate (%)=100×(1 minus (concentration of apo B in sample group/concentration of apo B in DMSO group).
Based on the above equation, 50% inhibition concentration (IC50) was determined.
Inhibitory Activity on MTP and apo B Secretion Inhibition by Metabolites
In a similar manner to Test Examples 1 and 2, the activity of metabolites was assayed.

SMILES | pIC50
CCOC(=O)C(COC(=O)Cc1ccc(NC(=O)c2ccccc2-c2ccc(C(F)(F)F)cc2)c(OCC)c1)(C(=O)OCC)c1ccccc1 [Example 3, 2-(2-{3-Ethoxy-4-[(4′-trifluoromethylbiphenyl-2-carbonyl)amino]phenyl}acetoxymethyl)-2-phenylmalonic acid diethyl ester] | 8.72
CCOC(=O)C(COC(=O)Cc1ccc(NC(=O)c2ccc(OCC)cc2-c2ccc(C(F)(F)F)cc2)c(C(=O)N(C)C)c1)(C(=O)OCC)c1ccccc1 [Example 2-82] | 8.36
CCOC(=O)C(COC(=O)Cc1ccc(NC(=O)c2ccccc2-c2ccc(C(F)(F)F)cc2)c(C(=O)N(C)C)c1)(C(=O)OCC)c1ccsc1 [Example 2-106] | 9.36
CCOC(=O)C(COC(=O)Cc1ccc(NC(=O)c2ccccc2-c2ccc(C(F)(F)F)cc2)c(N(C)C)c1)(C(=O)OCC)c1ccccc1 [Example 4-6] | 8.12
CCOC(=O)C(COC(=O)Cc1ccc(NC(=O)c2ccccc2-c2ccc(C(F)(F)F)cc2)c(C(=O)N(C)C)c1)(C(=O)OCC)c1cccc(OC)c1 [Example 2-76] | 9.07
CCC(=O)N(C)[C@H](COC(=O)Cc1ccc(NC(=O)c2ccccc2-c2ccc(C(F)(F)F)cc2)c(C(=O)N(C)C)c1)c1ccccc1 [Example 2-51] | 7.33
CCOC(=O)C(COC(=O)Cc1ccc(NC(=O)c2ccccc2-c2ccc(C(F)(F)F)cc2)c(N2CCOCC2)c1)(C(=O)OCC)c1ccccc1 [Example 4-7] | 7.82
CCOC(=O)C(COC(=O)Cc1ccc(NC(=O)c2ccccc2Oc2ccccc2)c(C(=O)N(C)C)c1)(C(=O)OCC)c1ccccc1 [Example 2-45] | 7.41
CCNC(=O)C(COC(=O)Cc1ccc(NC(=O)c2ccccc2-c2ccc(C(F)(F)F)cc2)c(C(=O)OCc2ccccc2)c1)(C(=O)NCC)c1ccccc1 [Example 9-8] | 8.16
CCOC(=O)C(COC(=O)Cc1ccc(NC(=O)c2ccccc2-c2ccc(C(F)(F)F)cc2)c(C(=O)N(C)C)c1)(C(=O)OCC)c1cccc(C)c1 [Example 2-69] | 9.04
CCOC(=O)C(COC(=O)Cc1ccc(NC(=O)c2cccc(Cl)c2-c2ccc(C(F)(F)F)cc2)c(C(=O)N(C)C)c1)(C(=O)OCC)c1ccccc1 [Example 2-79] | 8.89
CCOC(=O)C(COC(=O)Cc1ccc(NC(=O)c2ccccc2-c2ccc(C(F)(F)F)cc2)c(C(=O)N(C)C)c1)c1ccccc1 (centres unmarked) [Example 2-50] | 7.68
CCNC(=O)C(COC(=O)Cc1ccc(NC(=O)c2ccccc2-c2ccc(C(F)(F)F)cc2)c(CC(C)C)c1)(C(=O)NCC)c1ccccc1 [Example 1-82] | 9.28
CCOC(=O)C(COC(=O)Cc1ccc(NC(=O)c2ccccc2-c2ccc(C(F)(F)F)cc2F)c(C(=O)N(C)C)c1)(C(=O)OCC)c1ccccc1 [Example 2-57] | 9.25
CN(C)C(=O)c1cc(CC(=O)OC[C@@H](NS(C)(=O)=O)c2ccccc2)ccc1NC(=O)c1ccccc1-c1ccc(C(F)(F)F)cc1 [Example 2-49] | 7.31
CCOC(=O)C(COC(=O)Cc1ccc(NC(=O)c2ccccc2-c2ccc(C(F)(F)F)cc2)c(N(CC)CC)c1)(C(=O)OCC)c1ccccc1 [Example 4-8] | 8.00
CCOC(=O)C(COC(=O)Cc1ccc(NC(=O)c2ccccc2-c2ccc(C(F)(F)F)cc2)c(C(=O)N(C)C)c1)(C(=O)OCC)c1ccc(C)cc1 [Example 2-70] | 8.63
CCNC(=O)C(COC(=O)Cc1ccc(NC(=O)c2cccnc2-c2ccc(C(F)(F)F)cc2)c(C)c1)(C(=O)NCC)c1ccccc1 [Example 1-77] | 6.44
CCOC(=O)C(COC(=O)Cc1ccc(NC(=O)c2ccccc2-c2ccc(C(C)C)cc2)c(C(=O)N(C)C)c1)(C(=O)OCC)c1ccccc1 [Example 2-92] | 8.83
CCNC(=O)C(COC(=O)Cc1ccc(NC(=O)c2ccccc2Oc2ccccc2)c(C(=O)N(C)C)c1)(C(=O)NCC)c1ccccc1 [Example 2-44] | 7.48
CN(C)C(=O)c1cc(CC(=O)OCC2(c3ccccc3)CCCC2)ccc1NC(=O)c1ccccc1-c1ccc(C(F)(F)F)cc1 [Example 2-102] | 7.83
CCC(CC)(COC(=O)Cc1ccc(NC(=O)c2ccccc2-c2ccc(C(F)(F)F)cc2)c(C(=O)N(C)C)c1)c1ccccc1 [Example 2-98] | 9.01

SMILES | pIC50
CCCC(COC(=O)Cc1ccc(NC(=O)c2ccccc2-c2ccc(C(F)(F)F)cc2)c(C(=O)N(C)C)c1)(C(=O)OCC)C(=O)OCC [Example 2-114] | 8.51
CCNC(=O)C(COC(=O)Cc1ccc(NC(=O)c2ccccc2-c2ccc(C(F)(F)F)cc2)c(OCc2ccccc2)c1)(C(=O)NCC)c1ccccc1 [Example 3-13] | 8.72
CCOC(=O)C(COC(=O)Cc1ccc(NC(=O)c2ccccc2Nc2cccc(C(F)(F)F)c2)c(C(=O)N(C)C)c1)(C(=O)OCC)c1ccccc1 [Example 2-95] | 7.74
CCNC(=O)C(COC(=O)Cc1ccc(NC(=O)c2ccccc2-c2ccc(C(F)(F)F)cc2)c(O)c1)(C(=O)NCC)c1ccccc1 [Example 3-2, {3-Hydroxy-4-[(4′-trifluoromethylbiphenyl-2-carbonyl)amino]phenyl}acetic acid 2,2-bisethylcarbamoyl-2-phenylethyl ester] | 8.38
CCNC(=O)C(CCOC(=O)Cc1cccc(NC(=O)c2ccccc2-c2ccc(C(F)(F)F)cc2)c1OCC)(C(=O)NCC)c1ccccc1 [Example 5-14] | 9.47
CCOC(=O)C(COC(=O)Cc1ccc(NC(=O)c2ccccc2-c2ccc(C(F)(F)F)cc2)c(C(=O)N(C)C)c1)(C(=O)OCC)c1cccc(Cl)c1 [Example 2-72] | 9.02
CCOC(=O)C(COC(=O)Cc1ccc(NC(=O)c2ccccc2-c2ccc(C(F)(F)F)cc2)c(O)c1)(C(=O)OCC)c1ccccc1 [Example 3-15] | 7.30
CCOC(=O)C(COC(=O)Cc1ccc(NC(=O)c2ccccc2-c2ccc(C(F)(F)F)c(Cl)c2)c(C(=O)N(C)C)c1)(C(=O)OCC)c1ccccc1 [Example 2-62] | 9.43
CCOC(=O)C(COC(=O)Cc1ccc(NC(=O)c2ccccc2-c2ccc(C(F)(F)F)cc2)c(Cl)c1)(C(=O)OCC)c1ccccc1 [Example 1-84] | 8.36
CCNC(=O)C(COC(=O)Cc1ccc2c(c1)oc(=O)n2C(=O)c1ccccc1-c1ccc(C(F)(F)F)cc1)(C(=O)NCC)c1ccccc1 [Example 9-3, [2-Oxo-3-(4′-trifluoromethylbiphenyl-2-carbonyl)-2,3-dihydrobenzoxazol-6-yl]acetic acid 2,2-bisethylcarbamoyl-2-phenylethyl ester] | 7.23
CCOC(=O)C(COC(=O)Cc1ccc(NC(=O)c2ccccc2-c2ccc(C(F)(F)F)cc2)c(C(=O)N(C)C)c1)(C(=O)OCC)c1ccccc1OC [Example 2-75] | 7.90
CCOC(=O)C(COC(=O)Cc1cc(C(=O)N(C)C)c(NC(=O)c2ccccc2-c2ccc(C(F)(F)F)cc2)c(Br)c1F)(C(=O)OCC)c1ccccc1 [Example 2-67] | 7.37
CCOC(=O)C(COC(=O)Cc1ccc(NC(=O)c2ccccc2-c2ccc(C(F)(F)F)cc2)c(C(=O)N(C)C)c1)(C(=O)OCC)c1nccs1 [Example 2-110] | 9.19
CCOC(=O)C(COC(=O)Cc1cc(C(=O)N(C)C)c(NC(=O)c2ccccc2-c2ccc(C(F)(F)F)cc2)c(Cl)c1F)(C(=O)OCC)c1ccccc1 [Example 2-66] | 7.24
CCOC(=O)C(COC(=O)Cc1ccc(NC(=O)c2ccccc2-c2ccc(C(F)(F)F)cc2)c(CC(C)C)c1)(C(=O)OCC)c1ccccc1 [Example 1-83] | 9.64
CN(C)C(=O)c1cc(CC(=O)OCC(CO)(CO)c2ccccc2)ccc1NC(=O)c1ccccc1-c1ccc(C(F)(F)F)cc1 [Example 2-103] | 7.37
C=CCC(COC(=O)Cc1ccc(NC(=O)c2ccccc2-c2ccc(C(F)(F)F)cc2)c(C(=O)N(C)C)c1)(C(=O)OCC)C(=O)OCC [Example 2-117] | 7.42
CCOC(=O)C(COC(=O)Cc1cc(Br)c(NC(=O)c2ccccc2-c2ccc(C(F)(F)F)cc2)c(C(=O)N(C)C)c1)(C(=O)OCC)c1ccccn1 [Example 2-59] | 9.00
CCOC(=O)C(COC(=O)Cc1ccc(NC(=O)c2c(C)cccc2-c2ccc(C(F)(F)F)cc2)c(C(=O)N(C)C)c1)(C(=O)OCC)c1ccccc1 [Example 2-86] | 9.38
CCOC(=O)C(COC(=O)Cc1ccc(NC(=O)c2ccccc2-c2ccc(C(F)(F)F)cc2)c(C(=O)N(C)C)c1)(C(=O)OCC)c1ccccc1Cl [Example 2-71] | 9.27
CCNC(=O)C(COC(=O)Cc1ccc(NC(=O)c2ccccc2-c2ccc(C(F)(F)F)cc2)c(C(=O)N2CCCCC2)c1)(C(=O)NCC)c1ccccc1 [Example 2-16] | 8.57

Same assay, conditions: Homo sapiens, main metabolites of the compounds (Test Example 8), read-out: Inhibition of apo B secretion IC50

SMILES | pIC50
O=C(O)Cc1ccc(NC(=O)c2ccccc2-c2ccc(C(F)(F)F)cc2)c(C(=O)N2CCCC2)c1 | < 5.00
